Measurements from patent publication US11013696B2, “Lipids and lipid compositions for the delivery of active agents” (Novartis AG, priority 2013, dated 2021).

assay: Percent encapsulation of mRNA in lipid nanoparticles (Quant-iT Ribogreen); format: physicochemical; conditions: Table 2; leptin mRNA in LNP with the cationic lipid
Protocol: All equipment and disposable supplies are certified free of RNase activity by the manufacturer or rendered RNase free by use of the RNaseZap reagent (LifeTechnologies). mRNA is encapsulated at a cationic lipid amine to mRNA phosphate (N:P) molar ratio of 4:1. Lipids (cationic lipid, DSPC, cholesterol and lipidated PEG or stealth lipid) are dissolved in ethanol. The molar ratios are 40:10:38:2, respectively. The mixture is sonicated briefly, then gently agitated for 5 minutes and then maintained at 37° C. until use. mRNA is exchanged into citrate buffer pH 5.8-6.0 by use of Amicon Ultra-15 centrifugal concentrators, and the final concentration is adjusted to 0.5 mg/ml and held at 37° C. until use. An equal volume of lipids in ethanol, mRNA in citrate buffer, and citrate buffer alone are drawn into disposable syringes. Tubing leading from syringes containing lipids and mRNA are attached to the T junction, and tubing leading from the syringe containing citrate buffer alone is paired with the tubing exiting the T-junction over a collection vessel containing a stir bar on an active stir plate. Syringes are placed in a syringe pump set to expel contents at a flow rate of 1 ml per minute.
The pump is activated, and the collected mRNA in lipid nanoparticles is transferred to SnakeSkin dialysis tubing (10,000 MWCO, Thermo Scientific). Material is dialyzed against RNAse- and pyrogen-free 1× phosphate buffered saline overnight at 4° C.
Percent encapsulation of mRNA in lipid nanoparticles is determined using the Quant-iT Ribogreen RNA Assay kit (Life Technologies). The LNP-mRNA suspension is assayed in buffer (mRNA outside the particle), and buffer plus Triton X-100 detergent (total mRNA). The difference calculated is the mRNA inside the particle. Prepare a 1000 ng/mL stock from the RNA provided in the kit and use this to generate a standard curve (0 ng/ml, 15.63-1000 ng/ml) in TE and TE+0.75% Triton X-100. Prepare LNP-mRNA samples in TE buffer and TE buffer +0.75% Triton X-100 with appropriate dilution so that reading is in the range of standard curve (400-2,000 fold). In a 384-well plate (Costar non-treated #3573) add 0.04 ml of standard (in duplicate) or sample (in triplicate) per well. Dilute Ribogreen reagent 240-fold in TE buffer and add 0.06 ml per well. Mix contents of wells and measure fluorescence (excitation=480 nm, emission=520 nm). Subtract background values (no RNA) from standard and test sample values and determine the concentrations of RNA in the samples using the standard curves. Determine the percent encapsulation of the sample by dividing the difference in concentrations between sample+triton and sample in buffer alone by the sample+triton concentration.

In order of rising “% encapsulation mRNA Leptin” value:
1. CCCCCCCCCCCCC(CCOC(=O)CCCCC(OCCCCCCCC)OCCCCCCCC)OC(=O)[C@H]1CCCN1C (stereo partly drawn) [Example 117, (2R)-1-((6,6-bis(octyloxy)hexanoyl)oxy) pentadecan-3-yl 1-methyl pyrrolidine-2-carboxylate]  5.0%
2. CCCCCCCCCCCCC(CCOC(=O)CCCCC(OCCCCCCCC)OCCCCCCCC)OC(=O)[C@@H]1CCCN1C (stereo partly drawn) [Example 118, (2S)-1-((6,6-bis(octyloxy)hexanoyl)oxy)pentadecan-3-yl 1-methylpyrrolidine-2-carboxylate]  12.8%
3. CCCCCCCCCCCCC(CCOC(=O)CCCCC(OCCCCCCCC)OCCCCCCCC)OC(=O)OCCCN1CCOCC1 (stereo not shown) [Example 112, 3-(((3-morpholinopropoxy)carbonyl)oxy) pentadecyl 6,6-bis(octyloxy) hexanoate]  32.9%
4. CCCCCCCCCCCCC(CCOC(=O)CCCCC(OCCCCCCCC)OCCCCCCCC)OC(=O)OCCN(CC)CC (stereo not shown) [Example 113, 3-(((2-(diethylamino)ethoxy)carbonyl)oxy)pentadecyl 6,6-bis(octyloxy)hexanoate]  37.5%
5. CCCCCCCC/C=C\CCCCCCCC(=O)OCC(COC(=O)CCCCCCC/C=C\CCCCCCCC)OC(=O)CCC(CCCCCCCCCCCC)OC(=O)OCCCN(C)C (stereo not shown) [Example 83, (Z)-2-((4-(((3-(dimethylamino)propoxy)carbonyl)oxy)hexadecanoyl)oxy)propane-1,3-diyl dioleate]  48.9%
6. CCCCCCCCCCCCC(CCOC(=O)CCCCC(OCCCCCCCC)OCCCCCCCC)OC(=O)OCCCN1CCN(C)CC1 (stereo not shown) [Example 110, 3-(((3-(4-methylpiperazin-1-yl)propoxy)carbonyl)oxy)pentadecyl 6,6-bis(octyloxy)hexanoate]  59.3%
7. CCCCCCCCCCCCCC(=O)OCC(COC(=O)CCCCCCCCCCCCC)OC(=O)CCC(CCCCCCCCCCCC)OC(=O)OCCCN(C)CC (stereo not shown) [Example 86, 2-((4-(((3-(ethyl(methyl)amino)propoxy)carbonyl)oxy)hexadecanoyl)oxy)propane-1,3-diyl ditetradecanoate]  68.5%
8. CCCCCCCCCCCCC(CCOC(=O)CCCCC(OCCCCCCCC)OCCCCCCCC)OC(=O)CCC1CCN(C)CC1 (stereo not shown) [Example 121, 3-((3-(1-methylpiperidin-4-yl)propanoyl)oxy)pentadecyl 6,6-bis(octyloxy)hexanoate]  71.2%
9. CCCCCCCCCCCCC(CCOC(=O)CCCCC(OCCCCCCCC)OCCCCCCCC)OC(=O)OCC1CCN(C)CC1 (stereo not shown) [Example 111, 3-((((1-methylpiperidin-4-yl)methoxy)carbonyl)oxy)pentadecyl 6,6-bis(octyloxy)hexanoate]  74.7%
10. CCCCCCCCCCCCC(CCOC(=O)CCCCC(OCCCCCCCC)OCCCCCCCC)OC(=O)OCCCCN(CC)CC (stereo not shown) [Example 109, 3-(((4-(diethylamino)butoxy)carbonyl)oxy)pentadecyl 6,6-bis(octyloxy)hexanoate]  80.6%
11. CC/C=C\C/C=C\C/C=C\CCCCCCCC(=O)OCC(COC(=O)CCCCCCC/C=C\C/C=C\C/C=C\CC)OC(=O)CCC(CCCCCCCCCCCC)OC(=O)OCCCN(C)C (stereo not shown) [Example 82, (9Z,9′Z,12Z,12′Z,15Z,15′Z)-2-((4-(((3-(dimethylamino)propoxy)carbonyl)oxy)hexadecanoyl)oxy)propane-1,3-diyl bis(octadeca-9,12,15-trienoate)]  81.9%
12. CCCCCCCCCCCCC(CCC(=O)OC(COC(=O)CCCCCCC)COC(=O)CCCCCCC)OC(=O)OCCCN(C)CC (stereo not shown) [Example 93, 2-((4-(((3-(ethyl(methyl)amino)propoxy)carbonyl)oxy)hexadecanoyl)oxy)propane-1,3-diyl dioctanoate]  82.0%
13. CCCCCCCCCCCCC(CCOC(=O)CCCCC(OCCCCCCCC)OCCCCCCCC)OC(=O)CCCCN(CC)CC (stereo not shown) [Example 123, 3-((5-(diethylamino)pentanoyl)oxy)pentadecyl 6,6-bis(octyloxy)hexanoate]  83.8%
14. CCCCCCCCCCCCC(CCC(=O)OC(COC(=O)CCCCCCCCCCC)COC(=O)CCCCCCCCCCC)OC(=O)OCCCN(C)CC (stereo not shown) [Example 89, 2-((4-(((3-(ethyl(methyl)amino)propoxy)carbonyl)oxy)hexadecanoyl)oxy)propane-1,3-diyl didodecanoate]  87.0%
15. CCCCCCCCCCCCC(OC(=O)OCCCN(CC)CC)C(=O)OC(COC(=O)CCCCCCC)COC(=O)CCCCCCC (stereo not shown) [Example 100, 2-((2-(((3-(diethylamino)propoxy)carbonyl)oxy)tetradecanoyl)oxy)propane-1,3-diyl dioctanoate)]  91.5%
16. CCCCCCCC(=O)OCCCCCCCCCCC(CCOC(=O)CCCCCC(CCCCCC)CCCCCC)OC(=O)OCCCN(C)C (stereo not shown) [Example 64, 3-(((3-(dimethylamino)propoxy)carbonyl)oxy)-13-(octanoyloxy)tridecyl 7-hexyltridecanoate]  93.0%
17. CCCCCCCCCCCCC(CCOC(=O)CCCCC(OCCC(CC)CC)OCCC(CC)CC)OC(=O)OCCCN(C)C (stereo not shown) [Example 116, 3-(((3-(dimethylamino)propoxy)carbonyl)oxy)pentadecyl 6,6-bis((3-ethylpentyl)oxy)hexanoate]  93.3%
18. CCCCCCCCCCCCC(CCOC(=O)CCCCC(OCCCCCCCC)OCCCCCCCC)OC(=O)OCCCN1CCCCC1 (stereo not shown) [Example 107, 3-(((3-(piperidin-1-yl)propoxy)carbonyl)oxy)pentadecyl 6,6-bis(octyloxy)hexanoate]  94.5%
19. CCCCCCCCCCCCC(CCOC(=O)CCCCC(OCCCCCCCC)OCCCCCCCC)OC(=O)OCCCN1CCNCC1 (stereo not shown) [Example 108, 3-(((3-(piperazin-1-yl)propoxy)carbonyl)oxy)pentadecyl 6,6-bis(octyloxy)hexanoate]  94.6%
20. CCCCCCCCOC(CCCCC(=O)OCCC(CCCCCCCC)OC(=O)OCCCN(CC)CC)OCCCCCCCC (stereo not shown) [Example 125, 3-(((3-(diethylamino)propoxy)carbonyl)oxy)undecyl 6,6-bis(octyloxy)hexanoate]  95.1%
21. CCCCCCCCCCCCC(CCOC(=O)CCCCC(OCCCCCCCC)OCCCCCCCC)OC(=O)[C@H]1CCCN1 (stereo partly drawn) [Example 119, (2R)-1-((6,6-bis(octyloxy)hexanoyl)oxy)pentadecan-3-yl pyrrolidine-2-carboxylate]  95.7%
22. CCCCCCCCCCCCC(CCOC(=O)CCCCC(OCCCCCCCC)OCCCCCCCC)OC(=O)C1(C)CCN(C)C1 (stereo not shown) [Example 120, 1-((6,6-bis(octyloxy)hexanoyl)oxy) pentadecan-3-yl 1,3-dimethylpyrrolidine-3-carboxylate]  96.1%
23. CCCCCCCCCCCCC(CCOC(=O)CCC(OCCCCCCCC)OCCCCCCCC)OC(=O)OCCCN(C)C (stereo not shown) [Example 106, 3-(((3-(dimethylamino)propoxy)carbonyl)oxy)pentadecyl 4,4-bis(octyloxy)butanoate]  96.3%
24. CCCCC/C=C\C/C=C\CCCCCCCCC(CCOC(=O)CCCCC(OCCCCCCCC)OCCCCCCCC)OC(=O)OCCCN(CC)CC (stereo not shown) [Example 127, (12Z,15Z)-3-(((3-(diethylamino)propoxy)carbonyl)oxy)henicosa-12,15-dien-1-yl 6,6-bis(octyloxy)hexanoate]  96.7%
25. CCCCCCCCCCC(CCOC(=O)CCCCC(OCCCCCCCC)OCCCCCCCC)OC(=O)OCCCN(CC)CC (stereo not shown) [Example 126, 3-(((3-(diethylamino)propoxy)carbonyl)oxy)tridecyl 6,6-bis(octyloxy)hexanoate]  97.4%
26. CCCCCCCCCCCCC(CCOC(=O)CCCCC(OCCCCCCCC)OCCCCCCCC)OC(=O)C1(C)CCN(C)CC1 (stereo not shown) [Example 122, 1-((6,6-bis(octyloxy)hexanoyl)oxy) pentadecan-3-yl 1,4-dimethylpiperidine-4-carboxylate]  97.5%
27. CCCCCCCCCCCCC(CCOC(=O)CCCCC1OC(CCCCCCC)CC(CCCCCCC)O1)OC(=O)OCCCN(CC)CC (stereo not shown) [Example 124, 3-(((3-(diethylamino)propoxy)carbonyl)oxy)pentadecyl 5-(4,6-diheptyl-1,3-dioxan-2-yl)pentanoate]  98.0%
28. CCCCCCCCCCCCC(CCOC(=O)CCCCC(OCC(CCC)CCC)OCC(CCC)CCC)OC(=O)OCCCN(CC)CC (stereo not shown) [Example 114, 3-(((3-(diethylamino)propoxy)carbonyl)oxy)pentadecyl 6,6-bis((2-propylpentyl)oxy)hexanoate]  98.4%
